# In patent publication US9056067B2, “Pharmaceutical composition for enhancing immunity, and extract of Poria” (Sinphar Pharmaceutical Co., Ltd., priority 2003, dated 2015):
# Legend:
# Format in all cases: in vivo, mice
# [1] = test system: spleen cells; test: Spleen cell growth (MTT assay) after oral administration
# Method: BALB/c male mice, 6-8 weeks old, were used throughout the experiment. The animals were purchased from National Laboratory Animal Center, Taipei, Taiwan. The mice were housed in the Individual Ventilation Cage System, which provided an environment of Specific Pyrogen-Free. The facilities had 12-h day/night rhythm, 24-26° C. and 30-70% humidity in air. Mice were fed autoclaved water and rodent chow, and the bedding was sterilized by autoclave also. The feedstock purchased from animal center of National Taiwan University composed of crude proteins (>23.0%), crude fat (>4.5%), crude fiber (<6.0%), ash (<8.0%), added minerals (<3.0%) and water (<12%). After transport, the mice were allowed to rest for two weeks before the experiments were started.
# (§1) […] […] The control group was the mice feeding with an equal volume of saline (0.85% of NaCl). Mice were sacrificed at day five, and both the serum and spleen cells were collected. The sera were subsequently used to measure the concentration of IgG, IgM and IgA. The spleen cells were plated onto a 100 mm diameter culture plate and incubated at 37° C. for three hours. The non-adherent cells containing T-lymphocytes, B-lymphocytes and NK cells were collected and properly diluted as described in each assay.
# The dry powder of PCM, PCM-K1, K-2, K-3 and K4 were suspended in sterile water, followed by sonication to break down the large particle. The suspension of fine particles was used to feed the animals.
# (§2) The mouse to be sacrificed was cervical dislocated and sterilized with 70% ethanol. The cardiac punctuation was performed first to withdraw the blood. After the haemagglutination, the blood sample was subjected to centrifugation and the serum was collect. For isolation of spleen cells, the peritoneum was opened to remove the spleen. The fresh spleen was transferred to a culture plate containing 10 ml of RPMI-1640 culture medium. The spleen was then ground over a fine mesh to release the spleen cells. The spleen cells suspending in the medium were then removed and transferred to a 50-ml conical centrifuge tube. The tube was subjected to centrifugation at 1300 rpm for 10 min. The supernatant was discarded and the pellet was re-suspended in 1 ml of cold RBC lysing buffer containing EDTA-NH4Cl. The cells were incubated at room temperature for 10 min, followed by washing the cells three times with culture medium by centrifugation. The spleen cells were plated onto a 100 mm diameter culture plate and incubated at 37° C. for three hours. The non-adherent cells containing T-lymphocytes, B-lymphocytes and NK cells were collected and properly diluted as described in each assay.
# MTT assay is the method routinely used for estimating the viable cell number and viability of the cultured cells. The basic principle is that the only mitochondria in a viable cells contain biologically activated oxido-reductive enzymes. The enzymes interact with MTT reagents to convert the chemical into a relatively insoluble blue crystal. The crystal is then solubilized in an acidic isopropanol and the absorbence at 570 nm in each well was read using an ELISA reader (EL311, BioTek, VT). Briefly, the spleen cells suspended in a medium containing RPMI 1640 supplemented with 10% fetal bovine serum (FBS), 2 mM L-glutamine, antibiotics and 1 μg/ml concanavalin A (Con A) were cultured in the 96-well flat-bottom plate (5×10^5 cells/100 μl/well) for 5 days. MTT assay was performed at day 3, 4 and 5. MTT tetrazolium (3-(4-5-dimethylthiazol-2-yl)-2,5-diphenyltertrazolium bromide) (5 mg/ml in phosphate-buffered saline) (Sigma Chemical, St. Louis, Mo.) was added to the spleen cells (20 μl MTT per 100 μl cells), and plates were incubated at 37° C. for 4 h. Acid-isopropanol (100 μl of 0.04 NHCL in isopropanol) was added to all wells and mixed completely to dissolve the dark blue crystals. After 20 minutes at room temperature to ensure that all crystals were dissolved, the plates were read on an EIA reader at 570 nm.
# [2] = test system: IgM; test: Serum level of IgM (ELISA); settings: for Dose with significant increase in serum level of IgM: oral
# Method: as §1, §2
# (§3) An ELISA was performed in our study to measure the immunoglobulin concentration. Briefly, the spleen cells (5×10^5 cells/ml) were cultured in a medium containing RPMI 1640 supplemented with 10% fetal bovine serum (FBS), 2 mM L-glutamine, antibiotics and 5 μg/ml lipopolysaccharide (LPS; 1 μg/10^5 cells) for 5 days. LPS is a polyclonal activator of B lymphocyte. Culture spleen cell supernatants were collected at day 3, 4 and 5. IgA, IgG and IgM concentrations were measured using a sandwich ELISA technique.
# (§4) The procedure for IgM assay was similar to that for IgG assay, except that the samples were 1/10^4 diluted and standard IgM ranged from 1 μg/ml to 0.0156 μg/ml were added (100 μl/well). The secondary antibody for the assay was HRP-conjugated goat anti-mouse IgM (1:1,000 diluted; heavy chain-specific; Zymed Laboratory, CA).
# [3] = test system: IgM; test: IgM secretion by spleen cells in vitro (LPS, ELISA) after oral administration; settings: for Dose with significant increase in IgM secretion by spleen cells: oral, after three days of in vitro culture
# Method: as §1, §2, §3, §4
# [4] = test system: IgA; test: IgA secretion by spleen cells in vitro (LPS, ELISA) after oral administration
# Method: as §1, §2, §3
# as §4, with “IgA” for “IgM”, “IgA (1:1000” for “IgM (1:1,000”, “diluted;” for “diluted; heavy chain-specific;”
# [5] = test system: immune cells (T cells/B cells); test: Immunity response tests (overall statement); settings: Table 2 to Table 10
# Method: The Poria extract and the purified compounds from the Poria extract by chromatography prepared according to the methods of the present invention were tested by various immunity response experiments listed in the following.
# [6] = oral 10 mg/kg/day for four days
# [7] = oral 20 mg/kg/day for four days
SMILES,"Spleen cell growth, absorbance at 570 nm (MTT assay), incubation day 3 ([1]; oral 5 mg/kg/day for four days)","Spleen cell growth, absorbance at 570 nm (MTT assay), incubation day 4 ([1]; oral 5 mg/kg/day for four days)","Spleen cell growth, absorbance at 570 nm (MTT assay), incubation day 5 ([1]; oral 5 mg/kg/day for four days)","Spleen cell growth, absorbance at 570 nm (MTT assay), incubation day 3 [1, 6]","Spleen cell growth, absorbance at 570 nm (MTT assay), incubation day 4 [1, 6]","Spleen cell growth, absorbance at 570 nm (MTT assay), incubation day 5 [1, 6]","Spleen cell growth, absorbance at 570 nm (MTT assay), incubation day 3 [1, 7]","Spleen cell growth, absorbance at 570 nm (MTT assay), incubation day 4 [1, 7]","Spleen cell growth, absorbance at 570 nm (MTT assay), incubation day 5 [1, 7]",Dose with significant increase in serum level of IgM [2],Serum immunoglobulin concentration IgM ([2]; oral 5 mg/kg/day for four days),"Serum immunoglobulin concentration IgM [2, 6]","Serum immunoglobulin concentration IgM [2, 7]","IgM secretion by spleen cell, incubation day 3 ([3]; oral 5 mg/kg/day for four days)","IgM secretion by spleen cell, incubation day 4 ([3]; oral 5 mg/kg/day for four days)","IgM secretion by spleen cell, incubation day 5 ([3]; oral 5 mg/kg/day for four days)","IgM secretion by spleen cell, incubation day 3 [3, 6]","IgM secretion by spleen cell, incubation day 4 [3, 6]","IgM secretion by spleen cell, incubation day 5 [3, 6]","IgM secretion by spleen cell, incubation day 3 [3, 7]",other results
C=C(CCC(C(=O)O)C1C(O)CC2(C)C3=CCC4C(C)(CCC(O)C4(C)C)C3=CCC12C)C(C)C (stereo not shown) [K4],0.949 ± 0.101,0.981 ± 0.087,0.862 ± 0.085,1.198 ± 0.101,1.273 ± 0.147,1.177 ± 0.078,1.233 ± 0.040,1.263 ± 0.041,1.061 ± 0.124,5 mg/kg/day,2.65 ± 0.21 mg/mL,2.86 ± 0.16 mg/mL,2.36 ± 0.16 mg/mL,463.65 ± 76.41,688.17 ± 85.78,649.89 ± 70.09,514.45 ± 70.30,733.58 ± 95.70,807.32 ± 104.21,747.6 ± 128.42,"IgM secretion by spleen cell, incubation day 4 [3, 7]: 746.50 ± 157.76; IgM secretion by spleen cell, incubation day 5 [3, 7]: 857.49 ± 92.19; Dose with significant increase in IgM secretion by spleen cells [3]: ≥ 5 mg/kg/day; IgA secretion by spleen cell, incubation day 3 ([4]; oral 5 mg/kg/day for four days): 55.56 ± 4.71; IgA secretion by spleen cell, incubation day 4 ([4]; oral 5 mg/kg/day for four days): 79.51 ± 3.74; IgA secretion by spleen cell, incubation day 5 ([4]; oral 5 mg/kg/day for four days): 106.69 ± 7.29; IgA secretion by spleen cell, incubation day 3 [4, 6]: 66.43 ± 5.26; IgA secretion by spleen cell, incubation day 4 [4, 6]: 95.39 ± 10.08; IgA secretion by spleen cell, incubation day 5 [4, 6]: 121.97 ± 12.69; IgA secretion by spleen cell, incubation day 3 [4, 7]: 119.59 ± 15.08; IgA secretion by spleen cell, incubation day 4 [4, 7]: 101.53 ± 25.08; IgA secretion by spleen cell, incubation day 5 [4, 7]: 133.16 ± 20.09; Dose with increase in IgA secretion by spleen cells ([4]; oral, PCM-K1 at day 3 and day 5): ≥ 5 mg/kg/day; Dosage at which potent [5]: potent at dosage low than 2.5 or 5.0; Immunity enhancement in immune cells (T cells/B cells) (in words) [5]: immunity enhancement activities"
C=C(CC[C@@H](C(=O)O)[C@H]1[C@H](O)C[C@@]2(C)C3=CC[C@H]4C(C)(C)C(=O)CC[C@]4(C)C3=CC[C@]12C)C(C)C [K3],1.154 ± 0.172,0.841 ± 0.160,0.864 ± 0.194,1.020 ± 0.090,0.900 ± 0.193,0.957 ± 0.200,1.103 ± 0.081,1.068 ± 0.132,0.943 ± 0.159,5 mg/kg/day,1.63 ± 0.11 mg/mL,1.53 ± 0.14 mg/mL,1.53 ± 0.13 mg/mL,222.42 ± 42.83,214.45 ± 28.51,277.52 ± 101.63,287.66 ± 44.44,294.30 ± 30.68,309.51 ± 30.88,372.14 ± 69.48,"IgM secretion by spleen cell, incubation day 4 [3, 7]: 519.53 ± 52.63; IgM secretion by spleen cell, incubation day 5 [3, 7]: 606.44 ± 88.10; Dose with significant increase in IgM secretion by spleen cells [3]: 10 mg/kg/day; Effect on IgA secretion by spleen cells (in words) ([4]; oral): significantly suppressed; IgA secretion by spleen cell, incubation day 3 ([4]; oral 5 mg/kg/day for four days): 32.83 ± 7.00; IgA secretion by spleen cell, incubation day 4 ([4]; oral 5 mg/kg/day for four days): 27.37 ± 5.83; IgA secretion by spleen cell, incubation day 5 ([4]; oral 5 mg/kg/day for four days): 21.96 ± 4.17; IgA secretion by spleen cell, incubation day 3 [4, 6]: 26.57 ± 3.68; IgA secretion by spleen cell, incubation day 4 [4, 6]: 28.97 ± 5.95; IgA secretion by spleen cell, incubation day 5 [4, 6]: 18.87 ± 2.66; IgA secretion by spleen cell, incubation day 3 [4, 7]: 43.08 ± 4.05; IgA secretion by spleen cell, incubation day 4 [4, 7]: 43.45 ± 5.92; IgA secretion by spleen cell, incubation day 5 [4, 7]: 30.50 ± 3.60; Dosage at which potent [5]: potent at dosage low than 2.5 or 5.0; Immunity enhancement in immune cells (T cells/B cells) (in words) [5]: immunity enhancement activities"
